Entries after “also recorded” stand apart in the source; their conditions may differ.
Legend:
[1] = test system: rat model of migraine (Cortical Spreading Depression, CSD); test: Cortical spreading depression (CSD) rat model of migraine: number of KCl-induced direct current (DC) potentials; type: in vivo, rat (Wistar); details: for Number of DC: n = 10, mean ± SD
Procedure: (§1) All animal experiments were carried out according to the National Institute of Health (NIH) guidelines for the care and use of laboratory animals, and approved by the Ethical Committee of the National Laboratory Animal Center, Kuopio, Finland. Altogether 77 adult male Wistar rats, purchased from Harlan, Netherlands, and weighing 250-350 g were used for the experiment. Animals were housed at a standard temperature (22±1° C.) and in a light-controlled environment (lights on from 7 am to 9 pm) with ad libitum access to food and water. Animals were grouped as follows: • 15 rats treated with SPM 927 (3 mg/kg; i.p.) 30 min before the CSD episode • 15 rats treated with SPM 927 (10 mg/kg; i.p.) 30 min before the CSD episode • 15 rats treated with SPM 927 (30 mg/kg; i.p.) 30 min before the CSD episode • 15 rats treated with Valproic acid (250 mg/kg; i.p.) 30 min before the CSD episode • 15 rats treated with Vehicle (2 ml/kg; i.p.) 30 min before CSD episode • 2 sham rats without CSD episode (topical NaCl application) and without any treatment Subgroups: • 10 rats to DC-potential, CBF, and blood pH, pO2, pCO2, glucose and mean arterial pressure analysis (rats killed at 30 min after CSD, brains fresh-frozen) • 5 rats to jugular vein cannulation (CGRP sampling) and dural as well as cortical CGRP immunocytochemistry (rats killed at 15 min after CSD)
Rats were anaethetized with Equithesin (3 ml/kg) and placed in a stereotactic frame. The rectal temperature was maintained at 37.0±1.0° C. with a homeothermic blanket system. A polyethylene catheter was inserted into the femoral artery in order to monitor arterial blood pressure and take blood samples for arterial pH, pO2, pCO2 and glucose. The arterial blood gases were measured with i-STAT portable clinical analyzer (I-STAT), arterial blood pressure monitored with Cardiocap II blood pressure analyzer (datex-Ohmeda, Helsinki, Finland) and blood glucose with standard glucose meter (Arkray, Japan). The measurements were taken 10 min before as well as 5 min after the CSD episode. The skin was opened by a medical incision and retracted laterally. Three skull burr holes were drilled in a row unilaterally. One was placed over the frontal cortex, the second frontoparietally and the third one parietally (FIG. 1). A laser-Doppler flow probe (Oxyflow, Oxford Optronics, UK) to monitor CBF and a non-invasive tungsten electrode for measuring direct current (DC) potential shifts were placed in the frontal and frontoparietal burr holes on the intact dura, respectively. The laser-Doppler flow probe was positioned in an area free of large pial and dural vessels to minimize a large-vessel contribution to the signal. For the DC-potential measurement, a reference electrode was fixed in the neck. CSDs were elicited unilaterally by placing a KCl-soaked (3.0 M) piece of filter paper on the parietal opening for 5 min. The KCl exposure was terminated by flushing the opening with saline and placing a dry piece of filter paper on the opening. The CBF and DC-potentials were monitored continuously starting from 5 minutes before CSD and continuing up to 30 min after the KCl exposure.
All values were calculated as mean±standard deviation (SD) and differences were considered to be statistically significant as the P<0.05 level. Statistical analysis was performed using StatsDirect statistical software. Differences among means were analyzed by using one-way analysis of variance (ANOVA). […]

[2] = test system: Calcitonin gene-related peptide (CGRP); test: CSD-induced CGRP release in jugular vein blood (CGRP EIA); type: in vivo, rat (Wistar); details: for CGRP release expressed as percent of baseline levels, 10-15 min: 10-15 min after induction of CSD; for CGRP release expressed as percent of baseline levels, 10-15 min / CGRP release expressed as percent of baseline levels, 20-25 min / CGRP release expressed as percent of baseline levels, Baseline: n = 5; for CGRP release expressed as percent of baseline levels, 20-25 min: 20-25 min after induction of CSD; for CGRP release expressed as percent of baseline levels, Baseline: baseline (before CSD)
Procedure: as §1
Following anesthesia (before CSD), a catheter was placed into the right jugular vein. 0.250 ml of blood was taken through the catheter for baseline measurement. For time course experiments further samples were taken at 10-15 and 20-25 min following initiation of CSD. Samples were stored in prepared Eppendorf tubes containing the protease inhibitors aprotinin (1000 KU, Bayer, Germany) and Pefabloc™ (1 mg/ml, Boehringer Mannheim, Germany), immediately cold centrifuged and stored at −80° C. The samples were acidified with trifluoroacetic acid and centrifuged at 6000 g for 20 min. The supernatant was extracted with Sep-Pak C-18 cartridges (Millipore, Waters, UK). Eluates were concentrated (dried) and dissolved in EIA buffer. CGRP concentrations were detected using a commercial CGRP EIA kit (S-3006, Bachem Distribution GmbH) according to the manufacturer's instructions.
All values were calculated as mean±standard deviation (SD) and differences were considered to be statistically significant as the P<0.05 level. Statistical analysis was performed using StatsDirect statistical software. Differences among means were analyzed by using one-way analysis of variance (ANOVA). Dunnet's post-hoc test was applied for multiple comparisons with a control group.

[3] = rat model of migraine, pre-treatment, 3 doses

## COC[C@@H](NC(C)=O)C(=O)NCc1ccccc1 [SPM 927, (R)-2-acetamide-N-benzyl-3-methoxypropionamide]
[1]; 3 mg/kg i.p. 30 min before CSD episode
  Number of DC: 4.2 ± 0.4
[1]; 10 mg/kg i.p. 30 min before CSD episode
  Number of DC: 3.3 ± 0.4
[1]; 30 mg/kg i.p. 30 min before CSD episode
  Number of DC: 3.5 ± 0.6
[1]; [3]
  Effect on CSD / number of CSD-induced DC-potentials (in words): reduces; also recorded: significant suppression
[2]; 3 mg/kg i.p.
  CGRP release expressed as percent of baseline levels, 10-15 min: 126 ± 45%
  CGRP release expressed as percent of baseline levels, 20-25 min: 35 ± 7%
  CGRP release expressed as percent of baseline levels, Baseline: 100 ± 0%
[2]; 10 mg/kg i.p.
  CGRP release expressed as percent of baseline levels, 10-15 min: 114 ± 27%
  CGRP release expressed as percent of baseline levels, 20-25 min: 66 ± 31%
  CGRP release expressed as percent of baseline levels, Baseline: 100 ± 0%
[2]; 30 mg/kg i.p.
  CGRP release expressed as percent of baseline levels, 10-15 min: 92 ± 53%
  CGRP release expressed as percent of baseline levels, 20-25 min: 71 ± 12%
  CGRP release expressed as percent of baseline levels, Baseline: 100 ± 0%
[2]; [3]
  Effect on CSD-induced CGRP release / CGRP levels in blood (in words): reduces; also recorded: significant suppression

## CCCC(CCC)C(=O)O [Valproic acid, reference compound]
[1]; 250 mg/kg i.p. 30 min before CSD episode
  Number of DC: 3.7 ± 0.3
[2]; 250 mg/kg i.p.
  CGRP release expressed as percent of baseline levels, 10-15 min: 56 ± 8%
  CGRP release expressed as percent of baseline levels, 20-25 min: 71 ± 15%
  CGRP release expressed as percent of baseline levels, Baseline: 100 ± 0%

Reference: patent US8008351B2, “Methods for prophylaxis or treatment of conditions associated with cortical spreading depression” (UCB Pharma GmbH, priority 2004, dated 2011)
